Measured values from ChEMBL document CHEMBL1144247, “Fluorescent polycyclic ligands for nitric oxide synthase (NOS) inhibition” (Bioorg Med Chem, 2008).

Assay: Inhibition of NOS in Sprague-Dawley rat brain by oxyhaemoglobin assay

Structure (SMILES) | IC50 [nM] | pIC50
N#Cc1c2ccccc2cn1C12CC3CC(CC(C3)C1)C2 | 291 | 4.52
O=C(NC12CC3CC(CC(C3)C1)C2)c1n[nH]c2ccccc12 | 2530 | 3.52
CNc1ccccc1C(=O)NC12CC3CC(CC(C3)C1)C2 | – | 2.53
CNc1ccccc1C(=O)OC12C3C4CC5C6C4C1C6C1(OCCCN12)C53 (centres undefined) | – | 2.93
O=C(O)c1n[nH]c2ccccc12 | 9650 | 3.28
N#CSc1c2ccccc2cn1C12CC3CC(CC(C3)C1)C2 | – | 3.88
O=[N+]([O-])c1c2ccccc2cn1C12CC3CC(CC(C3)C1)C2 | – | 3.74
O=C(OC12C3C4CC5C6C4C1C6C1(OCCCN12)C53)c1n[nH]c2ccccc12 (centres undefined) | 350 | 4.22
N=C(N)NN [PIMAGEDINE] | 19400 | 2.72
